The source made the active and inactive calls.
How the values were obtained:
[1] = target: Alkaline phosphatase, placental type (Homo sapiens, UniProt P05187); test: human placental alkaline phosphatase inhibition – biochemical, luminescence, confirmation (AID 1512); format: functional
[2] = target: T1, Alkaline phosphatase, tissue-nonspecific isozyme (Homo sapiens, UniProt P05186); test: potency against alkaline phosphatase TNAP – biochemical, luminescent, dose response, SAR follow-up (AID 1056)
T1 sequence (P05186 whole entry): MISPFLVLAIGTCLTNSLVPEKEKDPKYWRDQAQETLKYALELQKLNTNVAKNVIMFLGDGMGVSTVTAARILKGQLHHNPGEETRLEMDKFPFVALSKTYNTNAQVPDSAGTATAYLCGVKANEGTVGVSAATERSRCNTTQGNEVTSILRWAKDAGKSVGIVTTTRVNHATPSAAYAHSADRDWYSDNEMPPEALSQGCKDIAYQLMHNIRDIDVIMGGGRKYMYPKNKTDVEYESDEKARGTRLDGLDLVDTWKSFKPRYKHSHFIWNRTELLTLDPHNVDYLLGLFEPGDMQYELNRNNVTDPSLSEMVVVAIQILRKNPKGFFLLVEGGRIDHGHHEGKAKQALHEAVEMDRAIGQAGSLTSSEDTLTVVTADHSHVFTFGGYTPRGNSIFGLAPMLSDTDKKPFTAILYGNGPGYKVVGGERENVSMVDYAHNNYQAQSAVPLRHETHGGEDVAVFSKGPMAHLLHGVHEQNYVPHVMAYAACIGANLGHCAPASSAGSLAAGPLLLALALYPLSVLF

[3] = target: T2, RNA-binding protein pos-1 (Caenorhabditis elegans, UniProt G5EF15); test: disruptors of C. elegans POS-1 RNA interaction – biochemical, fluorescence polarization, dose response (AID 1964);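 also: purified POS-1 fused to maltose binding protein made in E. coli; potency of compounds blocking POS-1 binding to fluorescent RNA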
T2 sequence (G5EF15 whole entry): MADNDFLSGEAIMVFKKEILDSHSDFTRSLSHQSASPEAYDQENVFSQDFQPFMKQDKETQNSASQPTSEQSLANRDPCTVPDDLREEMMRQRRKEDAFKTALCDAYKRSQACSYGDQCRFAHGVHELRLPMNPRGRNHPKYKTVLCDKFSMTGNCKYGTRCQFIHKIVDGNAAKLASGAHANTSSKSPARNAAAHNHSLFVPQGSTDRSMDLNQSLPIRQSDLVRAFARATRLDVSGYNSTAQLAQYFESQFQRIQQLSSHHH

[4] = target: T3, Zinc finger protein mex-5 (Caenorhabditis elegans, UniProt Q9XUB2); test: potency of MEX-5 RNA-binding blockers – biochemical, C. elegans, fluorescence polarization, dose response (AID 1960)
T3 sequence (Q9XUB2 whole entry): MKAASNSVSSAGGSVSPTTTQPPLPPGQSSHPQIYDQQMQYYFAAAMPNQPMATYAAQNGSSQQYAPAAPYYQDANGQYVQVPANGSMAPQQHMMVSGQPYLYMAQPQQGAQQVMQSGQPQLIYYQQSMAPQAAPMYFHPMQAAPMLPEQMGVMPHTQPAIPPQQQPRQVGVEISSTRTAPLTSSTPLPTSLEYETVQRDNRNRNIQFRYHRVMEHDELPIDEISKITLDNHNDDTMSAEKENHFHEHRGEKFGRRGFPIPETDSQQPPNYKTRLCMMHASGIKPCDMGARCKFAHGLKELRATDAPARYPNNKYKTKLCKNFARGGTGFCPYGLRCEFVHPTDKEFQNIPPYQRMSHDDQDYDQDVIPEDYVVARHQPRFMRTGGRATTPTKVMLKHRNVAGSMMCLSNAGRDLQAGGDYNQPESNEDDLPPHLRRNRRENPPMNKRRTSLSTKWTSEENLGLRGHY

[5] = target: G-protein coupled receptor 55 (Homo sapiens, UniProt Q9Y2T6); test: inhibition of LPI-stimulated GPR55 beta-arrestin translocation – imaging, U2OS, beta-arrestin-GFP, LPI agonist, primary screen (AID 2013); format: functional;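 also: antagonist potency measured as reduced agonist-driven arrestin aggregation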
Sequence of G-protein coupled receptor 55 (Q9Y2T6 whole entry): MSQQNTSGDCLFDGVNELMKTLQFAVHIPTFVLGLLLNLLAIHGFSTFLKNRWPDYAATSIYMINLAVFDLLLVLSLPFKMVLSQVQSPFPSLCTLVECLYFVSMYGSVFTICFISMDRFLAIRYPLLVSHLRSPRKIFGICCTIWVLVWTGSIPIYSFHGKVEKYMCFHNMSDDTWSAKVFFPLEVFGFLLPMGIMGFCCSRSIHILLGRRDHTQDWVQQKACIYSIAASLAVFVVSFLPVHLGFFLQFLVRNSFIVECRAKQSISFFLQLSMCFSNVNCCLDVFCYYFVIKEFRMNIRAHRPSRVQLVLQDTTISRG

[6] = THP-1 cell cytotoxicity, dose response, cytotoxicity control for non-replicating M. tuberculosis project (AID 489025); format: functional
[7] = Vero E6 cell cytotoxicity, dose response, cytotoxicity control for non-replicating M. tuberculosis project, secondary assay (AID 492998); format: functional, VeroE6; conditions: Vero C1008
[8] = target: T4, Heat shock factor protein 1 (Mus musculus, UniProt P38532); test: enhancement of HSF1-driven luciferase signal – cell-based, NIH3T3, luminescence, dose retest, confirmation (AID 435004); format: functional;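 also: stress induced by proteasome inhibitor MG132 added 30 min after compound; luciferase reporter driven by HSF1 response element in NIH3T3 cells; actives raise luminescence as potentiators of the MG132 stress response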
T4 sequence (P38532 whole entry): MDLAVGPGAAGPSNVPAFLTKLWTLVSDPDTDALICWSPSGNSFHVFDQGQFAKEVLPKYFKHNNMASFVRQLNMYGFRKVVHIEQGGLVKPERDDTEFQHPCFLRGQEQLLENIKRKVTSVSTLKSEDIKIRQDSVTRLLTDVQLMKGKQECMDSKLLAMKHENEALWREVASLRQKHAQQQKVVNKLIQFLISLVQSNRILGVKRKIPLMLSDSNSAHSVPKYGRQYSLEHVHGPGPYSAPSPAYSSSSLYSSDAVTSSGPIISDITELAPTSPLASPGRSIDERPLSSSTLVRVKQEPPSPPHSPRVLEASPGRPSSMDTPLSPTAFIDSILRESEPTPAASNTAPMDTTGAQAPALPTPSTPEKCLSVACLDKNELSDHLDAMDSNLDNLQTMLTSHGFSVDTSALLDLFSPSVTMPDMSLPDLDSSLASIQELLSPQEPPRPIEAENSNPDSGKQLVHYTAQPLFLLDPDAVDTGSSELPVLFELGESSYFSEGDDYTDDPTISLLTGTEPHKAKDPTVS

cells = format: functional
HEK293 [9] = test: inhibition of NOD1-driven NF-kB reporter – cell-based, luminescence, uHTS, primary screen (AID 1578); format: functional; conditions: Homo sapiens
HEK293 [10] = test: cells; format: functional, cell-based; conditions: Homo sapiens
HEK293 [11] = test: cells; format: functional, cell-based; conditions: Homo sapiens; remark: listed apart in the source
[12] = target: Nucleotide-binding oligomerization domain-containing protein 2 (Homo sapiens, UniProt Q9HC29); test: inhibition of NOD2-driven NF-kB reporter – cell-based, luminescence, uHTS, HEK293 (AID 1566); format: functional
Sequence of Nucleotide-binding oligomerization domain-containing protein 2 (Q9HC29 whole entry, the tested form may be a part): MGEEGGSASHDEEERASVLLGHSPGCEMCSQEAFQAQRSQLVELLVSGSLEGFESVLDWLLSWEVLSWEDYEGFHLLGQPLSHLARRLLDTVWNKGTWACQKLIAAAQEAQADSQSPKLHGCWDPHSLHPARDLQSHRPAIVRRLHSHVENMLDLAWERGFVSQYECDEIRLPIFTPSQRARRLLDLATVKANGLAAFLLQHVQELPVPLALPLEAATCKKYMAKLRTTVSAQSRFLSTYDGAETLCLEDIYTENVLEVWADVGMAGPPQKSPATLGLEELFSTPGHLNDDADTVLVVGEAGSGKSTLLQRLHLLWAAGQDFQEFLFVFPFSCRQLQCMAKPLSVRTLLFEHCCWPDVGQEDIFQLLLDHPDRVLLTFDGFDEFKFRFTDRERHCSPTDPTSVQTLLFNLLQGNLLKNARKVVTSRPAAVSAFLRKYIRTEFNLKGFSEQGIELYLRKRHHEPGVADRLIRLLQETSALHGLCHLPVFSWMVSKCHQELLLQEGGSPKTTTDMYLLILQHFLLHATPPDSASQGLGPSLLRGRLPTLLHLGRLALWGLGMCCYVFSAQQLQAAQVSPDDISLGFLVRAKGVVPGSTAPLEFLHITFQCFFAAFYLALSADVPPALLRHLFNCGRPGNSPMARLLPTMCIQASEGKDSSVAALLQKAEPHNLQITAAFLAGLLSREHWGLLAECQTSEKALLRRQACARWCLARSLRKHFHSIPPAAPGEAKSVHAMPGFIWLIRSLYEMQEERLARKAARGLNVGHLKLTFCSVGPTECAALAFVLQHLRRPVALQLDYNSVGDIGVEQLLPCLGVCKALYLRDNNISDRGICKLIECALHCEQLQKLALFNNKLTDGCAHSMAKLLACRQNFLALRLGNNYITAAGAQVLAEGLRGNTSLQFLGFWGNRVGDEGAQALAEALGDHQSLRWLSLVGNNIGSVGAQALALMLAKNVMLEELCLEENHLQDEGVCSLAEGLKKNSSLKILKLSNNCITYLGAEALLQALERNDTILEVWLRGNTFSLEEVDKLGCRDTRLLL

HEK293 [13] = test: NOD2 signaling inhibitors in MDP-stimulated cells, cell-based, uHTS, luminescence (AID 2001); format: functional; conditions: Homo sapiens
HEK293 [14] = test: cells; format: functional, cell-based; conditions: Homo sapiens; remark: listed apart in the source
[15] = viability of PTEN-deleted HCT116 cells – cell-based, HCT116 PTEN knockout, dose response (AID 1047); format: functional;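 also: HCT116 colon tumor cells with PTEN knocked out; cells exposed to compound for 60 hours before readout; potency for loss of cell viability measured by luminescence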
[16] = viability of HCT116 lacking mutant beta-catenin – cell-based, human colon tumor, dose response (AID 1045); format: functional;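 also: HCT116 colon tumor cells with beta catenin knocked out; cells exposed to compound for 60 hours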
[17] = target: T5, Replicative DNA helicase DnaB (Mycobacterium tuberculosis, UniProt P9WMR3); test: DnaB intein splicing inhibitors, dose response, biochemical, cell-free fluorescence (AID 449749); format: functional
T5 sequence (P9WMR3 whole entry): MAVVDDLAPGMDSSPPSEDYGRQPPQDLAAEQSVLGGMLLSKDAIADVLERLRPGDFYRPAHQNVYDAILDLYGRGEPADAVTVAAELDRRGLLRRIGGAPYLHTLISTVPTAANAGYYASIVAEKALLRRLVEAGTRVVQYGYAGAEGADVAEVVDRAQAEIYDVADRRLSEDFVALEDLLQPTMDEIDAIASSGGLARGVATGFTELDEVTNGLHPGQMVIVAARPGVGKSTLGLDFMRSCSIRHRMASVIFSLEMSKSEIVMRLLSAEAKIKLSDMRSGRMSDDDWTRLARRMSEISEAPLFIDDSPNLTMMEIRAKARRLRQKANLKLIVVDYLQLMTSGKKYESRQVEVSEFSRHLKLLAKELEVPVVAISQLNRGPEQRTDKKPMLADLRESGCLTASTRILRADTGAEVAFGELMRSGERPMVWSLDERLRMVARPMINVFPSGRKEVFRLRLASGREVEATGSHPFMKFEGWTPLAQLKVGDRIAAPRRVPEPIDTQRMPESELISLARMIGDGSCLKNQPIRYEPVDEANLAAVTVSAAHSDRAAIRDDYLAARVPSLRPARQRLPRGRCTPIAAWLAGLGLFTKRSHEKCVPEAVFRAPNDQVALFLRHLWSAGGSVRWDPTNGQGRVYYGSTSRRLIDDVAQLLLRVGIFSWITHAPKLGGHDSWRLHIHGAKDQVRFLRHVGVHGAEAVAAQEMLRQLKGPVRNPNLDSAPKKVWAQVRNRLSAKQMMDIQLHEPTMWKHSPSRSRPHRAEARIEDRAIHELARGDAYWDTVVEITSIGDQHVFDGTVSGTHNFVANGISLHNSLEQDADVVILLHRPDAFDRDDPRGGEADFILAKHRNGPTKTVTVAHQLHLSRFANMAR

[18] = target: Heat shock protein HSP 90-alpha (Homo sapiens, UniProt P07900); format: functional, organism-based
Protein RecA = target: T6, Protein RecA (Mycobacterium tuberculosis, UniProt P9WHJ3); test: Fluorescence Cell-Free Homogeneous Dose Retest to Identify Inhibitors of RecA-Intein Splicing Activity. [Related pubchem assays (depositor defined):AID2097, AID2223, AID489010, AID492950]; format: functional
T6 sequence (P9WHJ3 whole entry): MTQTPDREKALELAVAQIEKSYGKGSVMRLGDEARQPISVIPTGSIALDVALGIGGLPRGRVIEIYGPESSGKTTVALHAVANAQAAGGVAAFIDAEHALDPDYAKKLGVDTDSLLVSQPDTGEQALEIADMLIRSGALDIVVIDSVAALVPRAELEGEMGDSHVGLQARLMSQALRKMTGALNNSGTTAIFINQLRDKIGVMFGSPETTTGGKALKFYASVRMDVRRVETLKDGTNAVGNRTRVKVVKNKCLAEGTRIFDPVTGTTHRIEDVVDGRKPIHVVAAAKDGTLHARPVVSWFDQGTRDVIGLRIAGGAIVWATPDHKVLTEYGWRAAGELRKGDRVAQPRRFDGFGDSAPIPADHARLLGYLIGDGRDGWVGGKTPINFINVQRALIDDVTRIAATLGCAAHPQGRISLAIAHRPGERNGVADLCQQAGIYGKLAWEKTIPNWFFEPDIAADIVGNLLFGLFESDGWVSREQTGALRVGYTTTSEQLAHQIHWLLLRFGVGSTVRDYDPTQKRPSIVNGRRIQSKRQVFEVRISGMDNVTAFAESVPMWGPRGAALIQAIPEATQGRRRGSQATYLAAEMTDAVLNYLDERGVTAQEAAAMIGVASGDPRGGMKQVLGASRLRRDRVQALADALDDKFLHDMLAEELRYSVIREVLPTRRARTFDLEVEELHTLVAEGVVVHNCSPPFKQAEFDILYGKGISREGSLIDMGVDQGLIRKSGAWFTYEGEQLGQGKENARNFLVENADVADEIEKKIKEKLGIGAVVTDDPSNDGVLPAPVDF

[19] = target: T7, COUP transcription factor 2 (Homo sapiens, UniProt P24468); test: Luminescence-based cell-based high throughput dose response assay to identify inhibitors of COUP-TFII (NR2F2).; format: functional;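 also: HEK293 cells transiently cotransfected with COUP-TFII expression vector and reporter; luciferase reporter luminescence driven by COUP-TFII from the pX2-168 reporter plasmid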
T7 sequence (P24468 whole entry): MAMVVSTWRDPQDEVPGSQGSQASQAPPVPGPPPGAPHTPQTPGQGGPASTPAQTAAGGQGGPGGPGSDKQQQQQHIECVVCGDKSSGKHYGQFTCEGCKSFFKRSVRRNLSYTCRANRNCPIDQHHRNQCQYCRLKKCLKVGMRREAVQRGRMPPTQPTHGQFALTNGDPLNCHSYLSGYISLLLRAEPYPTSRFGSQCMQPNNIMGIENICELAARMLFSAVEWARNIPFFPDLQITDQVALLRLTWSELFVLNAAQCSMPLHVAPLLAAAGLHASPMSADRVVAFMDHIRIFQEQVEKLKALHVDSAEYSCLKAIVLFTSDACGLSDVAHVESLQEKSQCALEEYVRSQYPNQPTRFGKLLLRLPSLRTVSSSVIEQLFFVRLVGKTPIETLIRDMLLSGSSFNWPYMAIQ

[20] = target: Glyceraldehyde-3-phosphate dehydrogenase (Homo sapiens, UniProt P04406)
Sequence of Glyceraldehyde-3-phosphate dehydrogenase (P04406 whole entry): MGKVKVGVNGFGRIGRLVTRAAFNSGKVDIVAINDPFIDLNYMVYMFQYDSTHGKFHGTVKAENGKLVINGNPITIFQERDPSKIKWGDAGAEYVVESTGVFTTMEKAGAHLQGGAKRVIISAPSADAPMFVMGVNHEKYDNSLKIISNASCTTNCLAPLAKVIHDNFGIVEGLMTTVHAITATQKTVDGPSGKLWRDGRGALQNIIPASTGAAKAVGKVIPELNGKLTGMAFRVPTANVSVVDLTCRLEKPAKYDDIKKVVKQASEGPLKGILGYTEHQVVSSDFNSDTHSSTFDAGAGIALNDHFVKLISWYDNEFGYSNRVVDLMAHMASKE

Sequence of Alkaline phosphatase, placental type (P05187 whole entry): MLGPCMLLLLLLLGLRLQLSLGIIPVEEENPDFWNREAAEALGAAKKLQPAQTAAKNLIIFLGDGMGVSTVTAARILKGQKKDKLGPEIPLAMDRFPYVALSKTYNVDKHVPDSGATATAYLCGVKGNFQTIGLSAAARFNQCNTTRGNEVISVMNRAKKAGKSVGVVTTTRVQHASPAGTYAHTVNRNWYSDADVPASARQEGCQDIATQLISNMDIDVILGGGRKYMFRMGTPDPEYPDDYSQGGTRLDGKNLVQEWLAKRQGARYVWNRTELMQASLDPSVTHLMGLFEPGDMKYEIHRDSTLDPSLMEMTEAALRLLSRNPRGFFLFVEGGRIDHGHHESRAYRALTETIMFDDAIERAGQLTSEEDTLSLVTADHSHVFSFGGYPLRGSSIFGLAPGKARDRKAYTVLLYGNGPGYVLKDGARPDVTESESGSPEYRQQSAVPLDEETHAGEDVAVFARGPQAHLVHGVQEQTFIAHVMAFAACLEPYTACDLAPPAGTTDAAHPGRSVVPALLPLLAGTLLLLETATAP

CCc1nc(SCC(=O)c2ccc(O)cc2O)n[nH]1
IC50 [1]: > 100 µM (inactive)
IC50 [2]: > 100 µM (inactive)

Cc1ccc(/C=C2/C(=O)NC(=O)N(CCc3ccc(F)cc3)C2=O)o1
EC50 [3]: > 300 µM (not active)
EC50 [4]: 290 µM (active)
IC50 [5]: 4.5 µM (active)

COc1ccc(C(=O)Cn2c(C)nc([N+](=O)[O-])c2Br)cc1
CC50 [6]: > 40 µM (active)
CC50 [7]: > 20 µM (active)
EC50 [8]: 19.8 µM (active)
IC50 (cells): 12.1 µM (active)

CC(C)CC(=O)/C(=C\c1ccc(Cl)cc1Cl)n1cncn1
EC50 (HEK293 [9]): > 20 µM (inactive)
IC50 (HEK293 [10]): 4.25 µM (active)
IC50 (HEK293 [11]): 9.81 µM (active)
EC50 [12]: > 20 µM (inactive)
IC50 (HEK293 [13]): 7.85 µM (active)
IC50 (HEK293 [14]): > 20 µM (inactive)
EC50 [15]: 4.72 µM (active)
EC50 [16]: 4.31 µM (active)
AC50 [17]: 11.8 µM (active)
AC50 [18]: 2.04 µM (active)
EC50 (Protein RecA): 11.2 µM (active)

Cc1nc2c(-c3ccc(Cl)cc3)cnn2c(N)c1-c1ccc(F)cc1
EC50 (HEK293 [9]): > 20 µM (inactive)
IC50 (HEK293 [10]): 2.34 µM (active)
IC50 (HEK293 [11]): > 20 µM (inactive)
EC50 [12]: > 20 µM (inactive)
IC50 (HEK293 [13]): > 20 µM (inactive)
IC50 (HEK293 [14]): > 20 µM (inactive)
IC50 [19]: > 85.4 µM (inactive)

CCc1ccc(-c2ccc(-c3nc(N)nn3-c3ccccc3)cc2)cc1
IC50 [20]: > 100 µM (not active)
IC50 [1]: > 100 µM (inactive)
IC50 [2]: > 100 µM (inactive)

Cc1cc(C(=O)COc2cccnc2[N+](=O)[O-])c(C)n1Cc1cccs1
EC50 (HEK293 [9]): > 20 µM (inactive)
IC50 (HEK293 [10]): > 20 µM (inactive)
IC50 (HEK293 [11]): > 20 µM (inactive)
EC50 [12]: 8.89 µM (active)
IC50 (HEK293 [13]): > 20 µM (inactive)
IC50 (HEK293 [14]): > 20 µM (inactive)

From ChEMBL document CHEMBL1201862, “PubChem BioAssay data set” (2004)
